Reference: PMC6585649 (Clinical Pharmacology in Drug Development, 2018)
Read-outs that look alike come from different tables or passages of the source.

What was measured:
[1] = type: in vivo, human (healthy subjects); settings: for AUC(0-t) / AUC(0-inf) / Cmax / half-life: human, plasma, oral; for AUC(0-t): AUCt
Multiple-dose = type: in vivo, human (healthy subjects); settings: for AUC(0-t) / Cmax / half-life at 7 days: human, plasma, oral; for AUC(0-t): AUC0–24, steady state (day 7); for Cmax: steady state (day 7); for half-life at 7 days: t1/2, steady state; for Cmin: steady state (day 7, 24-hour period)
[2] = type: in vivo; settings: human, not told, po
[3] = cited from earlier work
[4] = cited from earlier work; remark: listed apart in the source
[5] = cited from earlier work; remark: listed apart in the source
cytochrome P450 (CYP) 3A = settings: in vitro; cited from earlier work
CYP2D6 = settings: in vitro; cited from earlier work
[6] = 6 and 12 mg twice daily, IR formulation, background methotrexate; cited from earlier work
[7] = 12 mg, single 12 mg IR, fasting, n = 11, mean ± SD
[8] = 15 mg, single 15 mg ER, fasting, n = 11, mean ± SD
[9] = 24 mg, single 24 mg IR, fasting, n = 12, mean ± SD
[10] = 30 mg, single 30 mg ER after high-fat breakfast, n = 12, mean ± SD
[11] = 30 mg, single 30 mg ER, fasting, n = 12, mean ± SD
[12] = 6 mg, 6 mg twice-daily IR, fasting, n = 11, mean ± SD
[13] = 12 mg, 12 mg twice-daily IR, fasting, n = 11, mean ± SD
[14] = 15 mg, 15 mg once-daily ER, fasting, n = 12, mean ± SD
[15] = 15 mg, 15 mg once-daily ER, nonfasting, n = 12, mean ± SD
[16] = 30 mg, 30 mg once-daily ER, fasting, n = 11, mean ± SD
[17] = 30 mg, 30 mg once-daily ER, nonfasting, n = 12, mean ± SD

- increase in AUC and Cmax after a high-fat meal compared with fasting ([1]; ER formulation): ~20%
- AUC(0-t) [1, 7]: 231 ± 34.5 ng·h/mL
- AUC(0-inf) [1, 7]: 234 ± 34.6 ng·h/mL
- Cmax [1, 7]: 64.6 ± 10.3 ng/mL
- half-life ([1]; 12 mg, t1/2, single 12 mg IR, fasting, n = 11, mean ± SD): 18.3 ± 13.3 h
- AUC(0-t) [1, 8]: 227 ± 60 ng·h/mL
- AUC(0-inf) [1, 8]: 242 ± 63.6 ng·h/mL
- half-life ([1]; 15 mg, t1/2, single 15 mg ER, fasting, n = 11, mean ± SD): 21.9 ± 23.1 h
- AUC(0-inf) [1, 9]: 524 ± 133 ng·h/mL
- Cmax [1, 9]: 176 ± 65.6 ng/mL
- half-life ([1]; 24 mg, t1/2, single 24 mg IR, fasting, n = 12, mean ± SD): 15.3 ± 13.6 h
- AUC(0-t) [1, 10]: 564 ± 145 ng·h/mL
- AUC(0-t) [1, 11]: 477 ± 130 ng·h/mL
- AUC(0-inf) [1, 11]: 491 ± 133 ng·h/mL
- Cmax [1, 10]: 76.8 ± 29.6 ng/mL
- Cmax [1, 11]: 63.7 ± 21.1 ng/mL
- half-life ([1]; 30 mg, t1/2, single 30 mg ER after high-fat breakfast, n = 12, mean ± SD): 15.9 ± 11 h
- half-life ([1]; 30 mg, t1/2, single 30 mg ER, fasting, n = 12, mean ± SD): 18.1 ± 14.5 h
- difference of central values for Cmax and Cmin, ER once daily vs IR twice daily (Multiple-dose; 15 and 30 mg once daily vs 6 and 12 mg twice daily, fasting, steady state): ≤ 13%
- AUC(0-t) (Multiple-dose; [12]): 288 ± 63.5 ng·h/mL
- Cmax (Multiple-dose; [12]): 33.9 ± 8.8 ng/mL
- half-life at 7 days (Multiple-dose; [12]): 24.5 ± 18.1 h
- AUC(0-t) (Multiple-dose; [13]): 534 ± 97.8 ng·h/mL
- Cmax (Multiple-dose; [13]): 73.9 ± 14.2 ng/mL
- half-life at 7 days (Multiple-dose; [13]): 11.5 ± 9.2 h
- AUC(0-t) (Multiple-dose; [14]): 279 ± 71.4 ng·h/mL
- AUC(0-t) (Multiple-dose; [15]): 317 ± 68.1 ng·h/mL
- Cmax (Multiple-dose; [14]): 31.9 ± 11.2 ng/mL
- Cmax (Multiple-dose; [15]): 36 ± 8.8 ng/mL
- half-life at 7 days (Multiple-dose; [14]): 16.9 ± 12 h
- half-life at 7 days (Multiple-dose; [15]): 15.1 ± 10.1 h
- AUC(0-t) (Multiple-dose; [16]): 525 ± 123 ng·h/mL
- AUC(0-t) (Multiple-dose; [17]): 582 ± 172 ng·h/mL
- Cmax (Multiple-dose; [16]): 68.2 ± 20.5 ng/mL
- Cmax (Multiple-dose; [17]): 79.5 ± 31.8 ng/mL
- half-life at 7 days (Multiple-dose; [16]): 22.9 ± 21.1 h
- steady state achieved by day (Multiple-dose; once-daily dosing of ER formulation, predose concentrations): ≤ 4 days
- Cmin (Multiple-dose; 6 mg twice-daily IR, fasting, n = 11, mean ± SD): 2.7 ± 0.6
- Cmin (Multiple-dose; 12 mg twice-daily IR, fasting, n = 11, mean ± SD): 3.8 ± 2.2
- Cmin (Multiple-dose; 15 mg once-daily ER, fasting, n = 12, mean ± SD): 3.1 ± 1.1
- Cmin (Multiple-dose; 15 mg once-daily ER, nonfasting, n = 12, mean ± SD): 2.8 ± 1.2
- Cmin (Multiple-dose; 30 mg once-daily ER, fasting, n = 11, mean ± SD): 3.8 ± 1.6
- Cmin (Multiple-dose; 30 mg once-daily ER, nonfasting, n = 12, mean ± SD): 4.6 ± 1.8
- bioavailability [2]: 70 to 80%
SMILES: CC[C@@H]1CN(C(=O)NCC(F)(F)F)C[C@@H]1c1cnc2cnc3[nH]ccc3n12 [Upadacitinib]
- dose eliminated unchanged in urine ([3]; IR formulation): approximately 20%
- time to maximum plasma concentration ([3]; IR formulation): ≤ 2 h
- accumulation in plasma ([3]; twice-daily dosing of the IR formulation): no significant accumulation
- decrease in upadacitinib AUC with rifampin ([4]; CYP inducer rifampin): 60%
- decrease of Cmax by food ([4]; IR formulation): approximately 20%
- impact of food on AUC ([4]; IR formulation): no impact
- increase in upadacitinib AUC with ketoconazole ([4]; strong CYP3A inhibitor ketoconazole): 75%
- effect of CYP2D6 metabolic phenotype on apparent oral clearance [5]: no effect
- residual error in upadacitinib concentrations [5]: 31%
- intersubject variability of apparent central volume of distribution ([5]; healthy subjects): 14%
- intersubject variability of apparent oral clearance ([5]; healthy subjects): 16%
- higher AUC compared with subjects with normal renal function ([5]; mild renal impairment, estimated): 16%
- higher AUC compared with subjects with normal renal function ([5]; moderate renal impairment, estimated): 32%
- apparent oral clearance lower in RA patients compared with healthy subjects ([5]; population pharmacokinetic analyses, estimated): 24%
- intersubject variability of apparent central volume of distribution ([5]; subjects with RA): 27%
- intersubject variability of apparent oral clearance ([5]; subjects with RA): 26%
- substrate of CYP3A (cytochrome P450 (CYP) 3A): nonsensitive substrate
- contribution of CYP2D6 to metabolism (CYP2D6): minor contribution
- efficacy in subjects with RA [6]: maximal efficacy
